From PubChem BioAssay (NCI)
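Cultured in 96-well plates, cells were exposed to test compound for 48 hours across five concentrations. Abbreviation: GI50, concentration required for 50% inhibition of growth. TGI denotes the concentration required for complete inhibition of growth.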

How the values were obtained:
Assay in all cases: growth of human tumour cells (NCI), 48 h
[1] = system: DU-145 prostate
[2] = system: SN12C renal
[3] = system: HL-60(TB) leukemia
[4] = system: EKVX NSCLC
[5] = system: HS 578T breast
[6] = system: SF-539 CNS
[7] = system: KM12 colon
[8] = system: TK-10 renal
[9] = system: HT29 colon
[10] = system: A549 NSCLC
[11] = system: OVCAR-5 ovarian
[12] = system: SK-MEL-2 melanoma
[13] = system: UACC-62 melanoma
[14] = system: UACC-257 melanoma
[15] = system: SF-268 CNS
[16] = system: U251 CNS
[17] = system: MCF7 breast
[18] = system: IGROV1 ovarian
[19] = system: HOP-62 NSCLC
[20] = system: NCI-H460 lung
[21] = system: RPMI-8226 leukemia
[22] = system: SK-MEL-5 melanoma
[23] = system: MALME-3M melanoma
[24] = system: SK-OV-3 ovarian
[25] = system: OVCAR-8 ovarian
[26] = system: HCC-2998 colon
[27] = system: BT-549 breast
[28] = system: SF-295 CNS
[29] = system: K-562 leukemia
[30] = system: SNB-19 CNS
[31] = system: MOLT-4 leukemia
[32] = system: COLO 205 colon
[33] = system: NCI-H226 lung
[34] = system: T-47D breast
[35] = system: LOX IMVI melanoma
[36] = system: HCT-116 colon
[37] = system: NCI/ADR-RES ovarian
[38] = system: RXF 393 renal
[39] = system: HCT-15 colon
[40] = system: PC-3 prostate
[41] = system: SW-620 colon
[42] = system: SNB-75 CNS
[43] = system: SK-MEL-28 melanoma
[44] = system: MDA-MB-231 breast
[45] = system: CCRF-CEM leukemia
[46] = system: ACHN renal
[47] = system: OVCAR-3 ovarian
[48] = system: OVCAR-4 ovarian
[49] = system: HOP-92 NSCLC
[50] = system: M14 melanoma
[51] = system: CAKI-1 renal
[52] = system: 786-0 renal
[53] = system: SR leukemia
[54] = system: NCI-H522 lung
[55] = system: MDA-MB-435
[56] = system: NCI-H23 lung
[57] = system: A498 renal
[58] = system: UO-31 renal

Cc1ccc(NC(=O)Nc2ccc(-c3cccnc3)cc2N2CCC(CO)CC2)cc1
GI50 [1]: 3.78 µM | TGI [1]: > 100 µM | GI50 [2]: 4.49 µM | TGI [2]: > 100 µM | GI50 [3]: 2.64 µM | TGI [3]: 7.38 µM | GI50 [4]: 3.42 µM | TGI [4]: > 100 µM | GI50 [5]: 1.7 µM | TGI [5]: 6.4 µM | GI50 [6]: 1.68 µM | TGI [6]: 4.67 µM | GI50 [7]: 1.25 µM | TGI [7]: > 100 µM | GI50 [8]: 2.04 µM | TGI [8]: 5.54 µM | GI50 [9]: 1.47 µM | TGI [9]: 9.93 µM | GI50 [10]: 3.18 µM | TGI [10]: > 100 µM | GI50 [11]: 3.64 µM | TGI [11]: > 100 µM | GI50 [12]: 2.24 µM | TGI [12]: 8.38 µM | GI50 [13]: 2.3 µM | TGI [13]: 6.18 µM | GI50 [14]: 2.14 µM | TGI [14]: 9.61 µM | GI50 [15]: 3.05 µM | TGI [15]: > 100 µM | GI50 [16]: 2.02 µM | TGI [16]: 6.81 µM | GI50 [17]: 1.59 µM | TGI [17]: > 100 µM | GI50 [18]: 8.44 µM | TGI [18]: > 100 µM | GI50 [19]: 2.41 µM | TGI [19]: > 100 µM | GI50 [20]: 3.19 µM | TGI [20]: > 100 µM | GI50 [21]: 3.02 µM | TGI [21]: 14.3 µM | GI50 [22]: 1.68 µM | TGI [22]: 3.27 µM | GI50 [23]: 3.07 µM | TGI [23]: > 100 µM | GI50 [24]: 3.93 µM | TGI [24]: > 100 µM | GI50 [25]: 6.43 µM | TGI [25]: > 100 µM | GI50 [26]: 3.21 µM | TGI [26]: > 100 µM | GI50 [27]: 1.96 µM | TGI [27]: 9.2 µM | GI50 [28]: 2.53 µM | TGI [28]: > 100 µM | GI50 [29]: 2.19 µM | TGI [29]: > 100 µM | GI50 [30]: 2.64 µM | TGI [30]: > 100 µM | GI50 [31]: 3.02 µM | TGI [31]: > 100 µM | GI50 [32]: 2.85 µM | TGI [32]: 11.1 µM | GI50 [33]: 6.31 µM | TGI [33]: > 100 µM | GI50 [34]: 3.9 µM | TGI [34]: > 100 µM | GI50 [35]: 3.6 µM | TGI [35]: > 100 µM | GI50 [36]: 1.78 µM | TGI [36]: 11.4 µM | GI50 [37]: 3.62 µM | TGI [37]: > 100 µM | GI50 [38]: 2.18 µM | TGI [38]: 4.69 µM | GI50 [39]: 2.77 µM | TGI [39]: > 100 µM | GI50 [40]: 5.6 µM | TGI [40]: > 100 µM | GI50 [41]: 2.52 µM | TGI [41]: > 100 µM | GI50 [42]: 1.26 µM | TGI [42]: 5.03 µM | GI50 [43]: 1.49 µM | TGI [43]: 5.42 µM | GI50 [44]: 2.42 µM | TGI [44]: > 100 µM | GI50 [45]: 3.57 µM | TGI [45]: > 100 µM | GI50 [46]: 6.68 µM | TGI [46]: > 100 µM | GI50 [47]: 1.67 µM | TGI [47]: 5.23 µM | GI50 [48]: 3.53 µM | TGI [48]: > 100 µM | GI50 [49]: 2.5 µM | TGI [49]: 6.42 µM | GI50 [50]: 2.95 µM | TGI [50]: 13.9 µM | GI50 [51]: 3.82 µM | TGI [51]: > 100 µM | GI50 [52]: 2.58 µM | TGI [52]: 7.25 µM | GI50 [53]: 2.83 µM | TGI [53]: > 100 µM | GI50 [54]: 1.66 µM | TGI [54]: 5.12 µM

COc1ccc(COCCOCc2nc(C#N)c(N)o2)cc1
TGI [1]: > 100 µM | TGI [2]: > 100 µM | TGI [3]: > 100 µM | TGI [4]: > 100 µM | TGI [6]: > 100 µM | TGI [7]: > 100 µM | TGI [8]: > 100 µM | TGI [55]: > 100 µM | TGI [9]: > 100 µM | TGI [10]: > 100 µM | TGI [11]: > 100 µM | TGI [12]: > 100 µM | TGI [13]: > 100 µM | TGI [14]: > 100 µM | TGI [15]: > 100 µM | TGI [56]: > 100 µM | TGI [16]: > 100 µM | TGI [17]: > 100 µM | TGI [18]: > 100 µM | TGI [57]: > 100 µM | TGI [19]: > 100 µM | TGI [20]: > 100 µM | TGI [21]: > 100 µM | TGI [22]: > 100 µM | TGI [58]: > 100 µM | TGI [24]: > 100 µM | TGI [25]: > 100 µM | TGI [26]: > 100 µM | TGI [27]: > 100 µM | TGI [28]: > 100 µM | TGI [29]: > 100 µM | TGI [31]: > 100 µM | TGI [32]: > 100 µM | TGI [33]: > 100 µM | TGI [34]: > 100 µM | TGI [35]: > 100 µM | TGI [36]: > 100 µM | TGI [37]: > 100 µM | TGI [38]: > 100 µM | TGI [39]: > 100 µM | TGI [40]: > 100 µM | TGI [41]: > 100 µM | TGI [42]: > 100 µM | TGI [43]: > 100 µM | TGI [44]: > 100 µM | TGI [45]: > 100 µM | TGI [46]: > 100 µM | TGI [47]: > 100 µM | TGI [48]: > 100 µM | TGI [49]: > 100 µM | TGI [50]: > 100 µM | TGI [51]: > 100 µM | TGI [52]: > 100 µM | TGI [53]: > 100 µM | TGI [54]: 75.8 µM
